From ChEMBL document CHEMBL1132755, “First enantiospecific synthesis of a 3,4-dihydroxy-L-glutamic acid [(3S,4S)-DHGA], a new mGluR1 agonist” (Bioorg Med Chem Lett, 2000)
pEC50: −log10 of the molar value.

What was measured:
[1] = target: Metabotropic glutamate receptor 2 (Homo sapiens) (UniProt Q14416); assay: Tested for inhibition of glutamate induced stimulation of Metabotropic glutamate receptor 2 in HEK 293ells; assay type: functional, cell-based; details: HEK293; concentration not given here
[2] = target: Metabotropic glutamate receptor 4 (Homo sapiens) (UniProt Q14833); assay: Tested for inhibition of glutamate induced stimulation of Metabotropic glutamate receptor 4 in HEK 293 cells; assay type: functional, cell-based; details: HEK293; concentration not given here
[3] = target: Metabotropic glutamate receptor 1 (Homo sapiens, UniProt Q13255); assay: Effect of compound on Metabotropic glutamate receptor 1 expressed in HEK 293 cells was determined by measuring IP production relative to glutamate; assay type: functional, cell-based, HEK293
Sequence of Metabotropic glutamate receptor 1 (Q13255 whole entry): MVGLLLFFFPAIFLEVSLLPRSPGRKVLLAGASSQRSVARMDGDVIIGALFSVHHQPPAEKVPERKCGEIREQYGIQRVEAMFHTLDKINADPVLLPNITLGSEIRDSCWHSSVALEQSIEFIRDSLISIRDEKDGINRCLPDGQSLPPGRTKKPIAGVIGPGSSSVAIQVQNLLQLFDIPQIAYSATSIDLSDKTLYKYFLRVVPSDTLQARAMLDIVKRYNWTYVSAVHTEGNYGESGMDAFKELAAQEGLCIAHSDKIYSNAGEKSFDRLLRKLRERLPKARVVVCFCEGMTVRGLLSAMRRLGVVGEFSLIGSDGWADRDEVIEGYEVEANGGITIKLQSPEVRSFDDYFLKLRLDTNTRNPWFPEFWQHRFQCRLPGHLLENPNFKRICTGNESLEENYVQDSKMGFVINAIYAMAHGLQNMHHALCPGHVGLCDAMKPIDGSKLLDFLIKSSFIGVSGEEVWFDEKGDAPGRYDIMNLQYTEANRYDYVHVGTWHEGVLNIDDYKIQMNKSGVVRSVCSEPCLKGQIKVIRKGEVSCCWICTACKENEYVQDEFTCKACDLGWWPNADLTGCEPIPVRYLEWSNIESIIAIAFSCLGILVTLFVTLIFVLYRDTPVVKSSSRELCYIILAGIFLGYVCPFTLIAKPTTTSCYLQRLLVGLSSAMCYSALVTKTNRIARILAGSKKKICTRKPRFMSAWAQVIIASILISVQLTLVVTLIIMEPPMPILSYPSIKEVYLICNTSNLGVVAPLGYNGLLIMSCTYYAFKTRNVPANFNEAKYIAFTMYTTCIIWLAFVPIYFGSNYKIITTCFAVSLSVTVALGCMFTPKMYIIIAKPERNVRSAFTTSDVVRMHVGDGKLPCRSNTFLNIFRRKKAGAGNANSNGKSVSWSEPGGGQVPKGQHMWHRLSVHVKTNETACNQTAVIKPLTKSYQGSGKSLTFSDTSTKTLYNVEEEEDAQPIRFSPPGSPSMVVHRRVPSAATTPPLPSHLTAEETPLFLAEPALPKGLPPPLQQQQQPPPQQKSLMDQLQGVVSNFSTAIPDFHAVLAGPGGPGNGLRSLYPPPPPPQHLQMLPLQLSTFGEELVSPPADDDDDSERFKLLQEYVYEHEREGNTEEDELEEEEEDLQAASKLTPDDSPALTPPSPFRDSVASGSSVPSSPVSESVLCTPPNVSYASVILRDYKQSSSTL

Sequence of Metabotropic glutamate receptor 4 (Homo sapiens) (Q14833 whole entry): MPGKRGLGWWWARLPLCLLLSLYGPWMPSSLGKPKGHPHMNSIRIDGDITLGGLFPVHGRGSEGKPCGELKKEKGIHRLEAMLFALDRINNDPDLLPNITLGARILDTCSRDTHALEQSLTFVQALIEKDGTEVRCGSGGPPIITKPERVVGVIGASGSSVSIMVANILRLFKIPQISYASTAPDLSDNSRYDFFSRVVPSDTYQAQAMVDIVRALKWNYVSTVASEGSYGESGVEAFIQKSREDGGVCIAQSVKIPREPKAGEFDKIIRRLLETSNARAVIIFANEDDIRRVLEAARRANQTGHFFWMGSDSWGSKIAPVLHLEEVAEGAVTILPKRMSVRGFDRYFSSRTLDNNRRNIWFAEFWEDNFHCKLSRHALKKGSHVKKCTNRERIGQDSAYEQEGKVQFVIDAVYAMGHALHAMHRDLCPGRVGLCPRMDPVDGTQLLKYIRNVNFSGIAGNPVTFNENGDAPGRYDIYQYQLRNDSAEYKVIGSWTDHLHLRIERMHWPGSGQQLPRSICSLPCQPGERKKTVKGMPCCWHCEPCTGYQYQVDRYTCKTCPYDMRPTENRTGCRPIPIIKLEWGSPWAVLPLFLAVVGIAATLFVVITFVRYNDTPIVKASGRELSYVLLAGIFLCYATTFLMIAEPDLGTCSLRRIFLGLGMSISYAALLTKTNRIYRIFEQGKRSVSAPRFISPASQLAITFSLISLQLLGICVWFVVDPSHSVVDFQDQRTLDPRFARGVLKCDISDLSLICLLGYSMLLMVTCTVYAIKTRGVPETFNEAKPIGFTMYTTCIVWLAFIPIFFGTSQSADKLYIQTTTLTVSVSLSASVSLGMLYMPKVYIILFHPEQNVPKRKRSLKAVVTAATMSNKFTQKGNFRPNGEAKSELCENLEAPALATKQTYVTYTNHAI
Sequence of Metabotropic glutamate receptor 2 (Homo sapiens) (Q14416 19-872 limits assumed): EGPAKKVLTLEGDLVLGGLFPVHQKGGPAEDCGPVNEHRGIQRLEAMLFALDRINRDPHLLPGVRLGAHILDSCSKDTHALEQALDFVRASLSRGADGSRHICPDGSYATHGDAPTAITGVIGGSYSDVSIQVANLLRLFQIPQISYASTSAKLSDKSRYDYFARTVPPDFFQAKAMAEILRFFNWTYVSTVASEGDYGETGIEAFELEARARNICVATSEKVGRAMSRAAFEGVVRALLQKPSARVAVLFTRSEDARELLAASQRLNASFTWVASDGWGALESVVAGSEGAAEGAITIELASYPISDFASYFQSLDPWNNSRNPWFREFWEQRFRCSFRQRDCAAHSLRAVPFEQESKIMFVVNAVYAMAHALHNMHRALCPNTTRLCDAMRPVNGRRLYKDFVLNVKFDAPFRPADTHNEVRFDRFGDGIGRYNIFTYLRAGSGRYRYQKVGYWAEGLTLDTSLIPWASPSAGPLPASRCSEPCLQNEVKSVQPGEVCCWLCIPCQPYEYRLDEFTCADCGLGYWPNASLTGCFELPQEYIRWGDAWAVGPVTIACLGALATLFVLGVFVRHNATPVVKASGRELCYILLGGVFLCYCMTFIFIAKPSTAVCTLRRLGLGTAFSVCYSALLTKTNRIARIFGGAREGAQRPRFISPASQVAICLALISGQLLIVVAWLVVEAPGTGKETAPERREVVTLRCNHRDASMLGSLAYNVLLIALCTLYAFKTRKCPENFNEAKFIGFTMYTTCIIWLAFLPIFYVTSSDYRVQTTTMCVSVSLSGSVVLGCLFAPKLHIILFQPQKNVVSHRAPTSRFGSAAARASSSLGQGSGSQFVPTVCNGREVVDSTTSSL

SMILES: N[C@H](C(=O)O)[C@H](O)[C@H](O)C(=O)O
- inhibition [1]: 29%
- inhibition [2]: 57%
- pEC50 [3]: 3.59
